# According to ChEMBL document CHEMBL2216752, “Carnitine palmitoyltransferase (CPT) modulators: a medicinal chemistry perspective on 35 years of research” (J Med Chem, 2011):
# pIC50: −log10 of the molar value.
# Tests used:
# [1] = organism: Homo sapiens; assay: Inhibition of carnitine palmitoyltransferase in human fibroblasts assessed as [14]CO2 production from [1-14C]pyruvate at 5 to 50 uM by radiometric assay; design: scale not given: the % may be the effect or the level left
# [2] = tested on: Rattus norvegicus; assay: Reduction in blood glucose in fasted Sprague-Dawley rat at 8 to 300 umol/kg, po measured 2 hrs post dose; format: functional; design: scale not given: the % may be the effect or the level left
# [3] = Toxicity in po dosed Sprague-Dawley rat assessed as hypoglycemic coma; format: organism-based; details: in vivo
# [4] = Inhibition of human FAO
# [5] = tested on: Rattus norvegicus; assay: Reduction in blood glucose in Sprague-Dawley rat at 600 umol/kg, po; format: functional; design: scale not given: the % may be the effect or the level left
# [6] = tested on: Sus scrofa; assay: Reduction in blood glucose in STZ-treated diabetic pig at 10 to 40 umol/kg, iv measured 6 hrs post dose; format: functional; design: scale not given: the % may be the effect or the level left
# [7] = organism: Rattus norvegicus; assay: Reduction in oxidation rate in rat liver mitochondria treated at 0.05% or 0.2% dose through food-admix for 12 weeks; format: functional, organism-based; design: scale not given: the % may be the effect or the level left
# [8] = tested on: Rattus norvegicus; assay: Reduction in blood glucose in po dosed Sprague-Dawley rat; format: functional
# [9] = Inhibition of carnitine palmitoyltransferase in hepatocytes from fasted rat assessed as oxidation of [U-14C]palmitate and production of acetoacetate and BHB; format: cell-based; details: Hepatocyte
# [10] = tested on: Cavia porcellus; assay: Reduction in blood glucose in SPF-white inbred guinea pig at 7 to 56 umol/kg, po; format: functional
# [11] = tested on: Rattus norvegicus; assay: Reduction in blood KB level in fasted Sprague-Dawley rat at 8 to 300 umol/kg, po; format: functional; design: scale not given: the % may be the effect or the level left
# [12] = tested on: Rattus norvegicus; assay: Reduction in blood KB in fasted Sprague-Dawley rat at 0.6 to 60 umol/kg, po; format: functional; design: scale not given: the % may be the effect or the level left
# [13] = tested on: Rattus norvegicus; assay: Reduction in blood glucose in fasted Sprague-Dawley rat at 0.6 to 60 umol/kg, po; format: functional; design: scale not given: the % may be the effect or the level left
# [14] = tested on: Rattus norvegicus; assay: Increase in plasma TG level in fasted Sprague-Dawley rat at 8 to 300 umol/kg, po measured 2 to 4 hrs post dose; format: functional
# [15] = tested on: Rattus norvegicus; assay: Inhibition of CPT1 in fasted Sprague-Dawley rat liver mitochondria at 0.6 to 60 umol/kg, po measured 4 hrs post dose; format: functional
# [16] = tested on: Rattus norvegicus; assay: Inhibition of CPT1 in Sprague-Dawley rat liver mitochondria at 0.6 to 60 umol/kg, po measured 4 hrs post dose; format: functional
# [17] = organism: Homo sapiens; assay: Inhibition of carnitine palmitoyltransferase in human fibroblasts assessed as [14]CO2 production from [U-14C]glucose at 5 to 50 uM by radiometric assay; design: scale not given: the % may be the effect or the level left
# [18] = tested on: Rattus norvegicus; assay: Reduction in blood KB in Sprague-Dawley rat at 0.6 to 60 umol/kg, po; format: functional; design: scale not given: the % may be the effect or the level left
# [19] = tested on: Mus musculus; assay: Reduction in FBG in db/db mouse at 19 umol/kg/day, po for 4 days measured 1 hr post dose after 16 hrs fasting; format: functional; design: scale not given: the % may be the effect or the level left
# [20] = tested on: Rattus norvegicus; assay: Increase in plasma FFAs level in fasted Sprague-Dawley rat at 8 to 300 umol/kg, po measured 2 to 4 hrs post dose; format: functional
# [21] = tested on: Rattus norvegicus; assay: Reduction in total cholesterol level in fasted Sprague-Dawley rat at 8 to 300 umol/kg, po measured 24 hrs post dose; format: functional; design: scale not given: the % may be the effect or the level left
# [22] = organism: Homo sapiens; assay: Inhibition of carnitine palmitoyltransferase in human fibroblasts assessed as [14]CO2 production at 5 to 50 uM from [U-14C]palmitate by radiometric assay; design: scale not given: the % may be the effect or the level left
# [23] = tested on: Rattus norvegicus; assay: Reduction in blood glucose in adrenalectomized rat at 25 to 150 umol/kg, po; format: functional; design: scale not given: the % may be the effect or the level left
# [24] = Inhibition of rat FAO
# [25] = tested on: Rattus norvegicus; assay: Increase in coronary flow in perfused rat heart at 5 mg/kg, sc administered as single dose administered 120 mins before start of perfusion; format: functional; details: route subcutaneous
# [26] = tested on: Mus musculus; assay: Reduction in glucose AUC in db/db mouse at 19 umol/kg/day, po for 4 days administering last dose 1 hr before glucose load by OGTT test; format: functional; design: scale not given: the % may be the effect or the level left
# [27] = organism: Rattus norvegicus; assay: Reduction in oxidation rate in rat liver mitochondria treated at 0.05% or 0.2% dose through food-admix for 12 weeks by polarographic oxygen uptake method; format: functional, organism-based; design: scale not given: the % may be the effect or the level left
# [28] = tested on: Rattus norvegicus; assay: Reduction in blood glucose in po dosed fasted Sprague-Dawley rat; format: functional
# [29] = tested on: Rattus norvegicus; assay: Reduction in whole body glucose utilization in Wistar rat at 60 mg/kg, iv over 5.5 hrs; format: functional; design: scale not given: the % may be the effect or the level left
# [30] = tested on: Rattus norvegicus; assay: Reduction in plasma glucose in Wistar rat at 60 mg/kg, iv over 5.5 hrs; format: functional; design: scale not given: the % may be the effect or the level left
# [31] = tested on: Rattus norvegicus; assay: Reduction in glucose carbon recycling in Wistar rat at 60 mg/kg, iv over 5.5 hrs; format: functional; design: scale not given: the % may be the effect or the level left
# [32] = tested on: Sus scrofa; assay: Reduction in plasma glucose in 48 hrs fasted pig at 20 mg, iv measured 5 hrs post dose; format: functional; design: scale not given: the % may be the effect or the level left
# [33] = tested on: Rattus norvegicus; assay: Reduction in blood 3-OH-butyrate in Wistar rat at 60 mg/kg, iv over 5.5 hrs (reference value: 1 mM); format: functional
smiles,measurement,setting,value
O=C([O-])C1(CCCCCc2ccc(Cl)cc2)CO1.[Na+] (racemic),Activity,[1],24%
same,Activity,[2],<=50%
same,LD50,[3],486 mg/kg
same,pIC50,[4],4.98
same,Activity,[5],80%
same,Activity,[6],<=35%
same,Activity,[7],< 80%
same,ED50,[8],9 mg/kg
same,pIC50,[9],5.30
same,ED50,[10],8.7 mg/kg
same,Activity,[11],<=75%
same,Activity,[12],78%
same,Activity,[13],<=25%
same,Activity,[14],<=290%
same,inhibition (INH),[15],<=98%
same,inhibition (INH),[16],99%
same,Activity,[17],250%
same,Activity,[18],<=40%
same,Activity,[19],60%
same,Activity,[20],300%
same,Activity,[21],43%
same,Activity,[22],90%
same,Activity,[23],34%
same,pIC50,[24],4.02
same,Activity,[25],50%
same,Activity,[26],50%
same,Activity,[27],< 50%
same,ED50,[28],8.7 mg/kg
O=C(O)C1(CCCCCCOc2ccc(Cl)cc2)CO1 (racemic),Activity,[29],14%
same,Activity,[30],25%
same,Activity,[31],30%
same,Activity,[32],50%
same,Activity,[33],0.03 mM
